Assays:
[1] = target: Glycogen synthase kinase-3 (Sus scrofa, UniProt B2LUN4+I6LNT8); assay: Inhibition of pig GSK3alpha/beta
[2] = target: Cyclin-dependent kinase 5/CDK5 activator 1 (Homo sapiens, UniProt Q00535); assay: Inhibition of human recombinant CDK5/P25 by scintillation counting; type: protein-complex assay
[3] = target: Dual specificity tyrosine-phosphorylation-regulated kinase 1A (Homo sapiens, UniProt Q13627); assay: Inhibition of human recombinant GST-fusion DYRK1A expressed in Escherichia coli

Sequence of Cyclin-dependent kinase 5/CDK5 activator 1 (Q00535 whole entry, the tested form may be a part): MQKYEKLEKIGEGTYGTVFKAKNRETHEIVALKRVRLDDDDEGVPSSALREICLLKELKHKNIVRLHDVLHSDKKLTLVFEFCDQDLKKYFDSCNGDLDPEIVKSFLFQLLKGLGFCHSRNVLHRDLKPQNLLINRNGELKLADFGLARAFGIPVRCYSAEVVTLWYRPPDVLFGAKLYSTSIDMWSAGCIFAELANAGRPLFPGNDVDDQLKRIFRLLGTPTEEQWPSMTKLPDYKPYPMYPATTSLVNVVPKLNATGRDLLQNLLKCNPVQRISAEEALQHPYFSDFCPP
Sequence of Cyclin-dependent kinase 5/CDK5 activator 1 (Q15078 whole entry, further chain, the tested form may be a part): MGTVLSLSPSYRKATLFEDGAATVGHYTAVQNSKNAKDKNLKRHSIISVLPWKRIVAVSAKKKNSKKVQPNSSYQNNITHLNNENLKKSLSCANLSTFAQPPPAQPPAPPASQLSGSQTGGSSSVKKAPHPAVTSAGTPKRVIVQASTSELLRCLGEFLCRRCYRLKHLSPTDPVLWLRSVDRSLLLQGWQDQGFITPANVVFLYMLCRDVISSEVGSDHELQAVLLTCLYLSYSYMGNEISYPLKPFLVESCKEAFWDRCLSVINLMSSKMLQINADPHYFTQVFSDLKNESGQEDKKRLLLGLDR

IC50 [1] [µM] | IC50 [2] [µM] | IC50 [3] [µM] | Structure (SMILES)
> 10 | > 10 | > 10 | CC(=O)Nc1nc2[nH]nc(NC(C)=O)c2cc1C#N
> 10 | > 10 | > 10 | CC(=O)Nc1nn(C)c2nc(N)c(C#N)c(-c3ccccc3)c12
> 10 | > 10 | > 10 | Cn1nc(N)c2c(-c3ccccc3)c(C#N)c(N)nc21
> 10 | > 10 | > 10 | COc1nc(NNC(C)=O)c(C#N)c(-c2ccccc2)c1C#N
> 10 | > 10 | > 10 | N#Cc1c(N2CCOCC2)nc2[nH]nc(N)c2c1-c1ccccc1
> 10 | > 10 | > 10 | N#Cc1c(Cl)nc2[nH]nc(N)c2c1-c1ccccc1
> 10 | > 10 | > 10 | N#Cc1cc2c(N)n[nH]c2nc1N
> 10 | > 10 | > 10 | N#Cc1cc2c(N)n(-c3ccccc3)nc2nc1N
> 10 | > 10 | > 10 | CC(=O)Nc1nc2nn(-c3ccccc3)c(NC(C)=O)c2cc1C#N
> 10 | > 10 | > 10 | Cn1nc(N)c2cc(C#N)c(N)nc21
> 10 | > 10 | > 10 | CC(=O)Nc1nn(C)c2nc(N)c(C#N)cc12
> 10 | > 10 | > 10 | CC(=O)n1nc(N)c2c(-c3ccccc3)c(C#N)c(N)nc21
1.5 | 0.41 | 11 | N#Cc1c(N)nc2[nH]nc(N)c2c1-c1ccccc1
> 10 | > 10 | > 10 | COc1nc(NN)c(C#N)c(-c2ccccc2)c1C#N

Reference: ChEMBL document CHEMBL1153477, “Synthesis and biological evaluation of 3,6-diamino-1H-pyrazolo[3,4-b]pyridine derivatives as protein kinase inhibitors” (Bioorg Med Chem Lett, 2009)
